From patent US20230355647A1, “Marker for determining anti-cancer effects of mitochondrial oxidative phosphorylation pathway inhibitor” (NANJING SHIJIANG MEDICINE TECHNOLOGY CO., LTD, priority 2020, published 2023)
pIC50: −log10 of the molar value.

Key:
Type in all cases: cell-based
WSU-DLCL2 = experiment: Cell viability (CellTiter-Glo), WSU-DLCL2; settings: Homo sapiens, WSUDLCL2; WSU-DLCL2 cell line, 3-4 days of culture
Method: Cell viability was detected using the Promega CellTiter-Glo kit, the kit reflected cell viability by directly measuring intracellular ATP content. The inhibitory effect (IC50 value) of Gboxin, a mitochondrial oxidative phosphorylation pathway inhibitor, on different tumor cell lines was tested in the Example. The name, source, and culture condition of each tumor cell line were as follows: Cell line WSU-DLCL2 (DSMZ, No. ACC-575) was cultured in 10% fetal bovine serum-containing RPMI1640 medium (+P/S). […] Cell viability was detected using the Promega CellTiter-Glo kit, the kit reflected cell viability by directly measuring intracellular ATP content.

U-937 = experiment: Cell viability (CellTiter-Glo), U-937; settings: Homo sapiens; U-937 cell line, 3-4 days of culture
Method: (§1) Cell viability was detected using the Promega CellTiter-Glo kit, the kit reflected cell viability by directly measuring intracellular ATP content. The inhibitory effect (IC50 value) of Gboxin, a mitochondrial oxidative phosphorylation pathway inhibitor, on different tumor cell lines was tested in the Example. The name, source, and culture condition of each tumor cell line were as follows:
Cell line U-937 (ATCC, No. CRL-1593.2) was cultured in 10% fetal bovine serum-containing RPMI1640 medium (+P/S).
(§2) The above tumor cells were cultured in the relevant medium (+P/S), and incubated for 3 h, then the gradient diluted Gboxin was added, and IC50 (50% inhibiting concentration) was measured after 3-4 days of culture.

CCRF-CEM = experiment: Cell viability (CellTiter-Glo), CCRF-CEM; settings: Homo sapiens; CCRF-CEM cell line, 3-4 days of culture
Method: as §1
Cell line CCRF-CEM (ATCC, No. CCL-119) was cultured in 10% fetal bovine serum-containing RPMI1640 medium (+P/S).
as §2

A-375 = experiment: Cell viability (CellTiter-Glo), A-375; settings: Homo sapiens; A-375 cell line, 3-4 days of culture
Method: as §1
Cell line A-375 (ATCC, No. CRL-1619) was cultured in 10% fetal bovine serum-containing DMEM medium (+P/S).
as §2

CCc1n(CC(=O)O[C@@H]2C[C@H](C)CC[C@H]2C(C)C)c2ccccc2[n+]1C.[Cl-] [Gboxin]
pIC50 (WSU-DLCL2): 6.17 | pIC50 (U-937): 5.39 | pIC50 (CCRF-CEM): 5.59 | pIC50 (A-375): 5.33
